Results on 12 molecules are retold here after patent US8299048B2, “Hexahydrocyclopentyl[f]indazole sulfonamides and derivatives thereof as selective glucocorticoid receptor modulators” (Merck Sharp & Dohme Corp., priority 2008, dated 2012).

pEC50: −log10 of the molar value.

Experiment [1] deals with T1, human GR (Homo sapiens, UniProt P04150).
T1 sequence (P04150 1-777): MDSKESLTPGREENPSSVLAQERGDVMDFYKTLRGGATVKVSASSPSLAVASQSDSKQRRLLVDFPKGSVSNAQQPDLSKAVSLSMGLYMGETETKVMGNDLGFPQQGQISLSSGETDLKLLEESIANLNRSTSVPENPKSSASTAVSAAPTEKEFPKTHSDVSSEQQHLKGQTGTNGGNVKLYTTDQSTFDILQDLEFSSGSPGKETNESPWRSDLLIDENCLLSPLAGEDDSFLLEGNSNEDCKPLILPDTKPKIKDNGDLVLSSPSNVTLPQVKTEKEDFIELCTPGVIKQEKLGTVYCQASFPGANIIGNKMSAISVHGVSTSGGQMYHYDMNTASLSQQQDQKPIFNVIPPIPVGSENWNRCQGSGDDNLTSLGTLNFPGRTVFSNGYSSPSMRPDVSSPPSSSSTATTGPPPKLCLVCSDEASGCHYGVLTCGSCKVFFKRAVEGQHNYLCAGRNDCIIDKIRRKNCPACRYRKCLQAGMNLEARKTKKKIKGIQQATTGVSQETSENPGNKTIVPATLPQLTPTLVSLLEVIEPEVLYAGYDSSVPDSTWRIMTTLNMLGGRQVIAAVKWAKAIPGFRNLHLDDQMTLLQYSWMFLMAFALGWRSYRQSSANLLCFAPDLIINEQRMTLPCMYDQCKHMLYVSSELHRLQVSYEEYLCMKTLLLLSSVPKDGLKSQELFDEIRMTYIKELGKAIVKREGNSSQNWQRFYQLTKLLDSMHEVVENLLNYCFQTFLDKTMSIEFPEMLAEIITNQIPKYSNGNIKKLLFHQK
Description: Transrepression Assay (GITAR), TNFα-β-lactamase reporter in U937 cells. Set-up: U937 cells contain an endogenous glucocorticoid receptor (GR); endogenous in cells; host or cells: U937 cells stably transfected with the TNF-alpha promoter/beta-lactamase reporter. The note with it: for GITAR > GRAMM % SEP: GITAR Emax minus GRAMMER Emax; for pEC50: inflection point, read-out: Transrepression U937 Cells GITAR IP. Type of experiment: cell-based. In outline:
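U937 cells stably carrying a TNF-α promoter–β-lactamase reporter, with endogenous GR, are preincubated with compound 30–45 min at 37 °C, then stimulated with PMA (5 ng/ml final) and LPS (100 ng/ml final) overnight (~18 hr). β-Lactamase is read with CCF2-AM substrate; repression by 100 nM dexamethasone defines 100%.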

The target of experiment [2] is T1, human GR. The experiment in a line: Trans-Activation Modulation of Glucocorticoid Receptor (GRAMMER), MMTV-LUC reporter, agonist mode. The class given is cell-based. More on the design: endogenous in cells. As to conditions: for pEC50: inflection point, read-out: Transactivation A549 Cells GRAMMER IP; for Emax: A549, A549 cells, read-out: Transactivation A549 Cells GRAMMER Emax. The gist of the method:
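Readout is luciferase from a modified MMTV LTR promoter after 24 h compound exposure alongside 10 nM dexamethasone (100% activity reference), DMSO ≤1%.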

The mark [3] stands for this setting: U-937, U937 cells, maximum activity, read-out: Transrepression U937 Cells GITAR Emax.
[4] abbreviates: U-937, activity repressed by 100 nM dexamethasone alone set as 100%, read-out: maximal activity in the transrepression (GITAR) assay.

Consider `C[C@]12Cc3cnn(-c4ccc(F)cc4)c3C=C1CC[C@@H]2CN(CCc1ccccn1)S(=O)(=O)Cc1cccnc1` [Example 1, N-{[(4αR,5S)-1-(4-Fluorophenyl)-4α-methyl-1,4,4α,5,6,7-hexahydrocyclopenta[f]indazol-5-yl]methyl}-1-pyridin-3-yl-N-(2-pyridin-2-ylethyl)methanesulfonamide], for which the “GITAR > GRAMM % SEP” value in experiment [1] came out at 41.9%. For the same molecule, the figures for the pEC50 in experiment [1] (U937 cells) and in experiment [2] (A549 cells) were 6.39 and 6.46, respectively. For the same molecule, in experiment [1] (U937 cells, maximum activity), the “Transrepression U937 Cells GITAR Emax” value turned out to be 73.5%. For the same molecule, the “Transactivation A549 Cells GRAMMER Emax” value in experiment [2] (A549 cells, maximum activity) is recorded as 31.6%.

Turning to `C[C@]12Cc3cnn(-c4ccc(F)cc4)c3C=C1CC[C@@H]2CN(CC1CC1)S(=O)(=O)c1ccccc1F` [Example 2, N-(cyclopropylmethyl)-2-fluoro-N-{[(4αR,5S)-1-(4-fluorophenyl)-4α-methyl-1,4,4α,5,6,7-hexahydrocyclopenta[f]indazol-5-yl]methyl}benzenesulfonamide], the figures for the pEC50 in experiment [1] (U937 cells) and in experiment [2] (A549 cells) were 6.59 and 6.66, respectively. The Emax in experiment [1] (setting [3]) is 73.3%; in experiment [1] (setting [4]), greater than 5%; in experiment [2] (maximum activity), 50.5%.

For the molecule `C=CCN(C[C@H]1CCC2=Cc3c(cnn3-c3ccc(F)cc3)C[C@@]21C)S(=O)(=O)c1ccccc1F` [Example 3, N-allyl-2-fluoro-N-{[(4αR,5S)-1-(4-fluorophenyl)-4α-methyl-1,4,4α,5,6,7-hexahydrocyclopenta[f]indazol-5-yl]methyl}benzenesulfonamide], the pEC50 is 6.39 in experiment [1] (U937 cells) and 6.43 in experiment [2] (A549 cells). Moreover, the Emax in experiment [1] (setting [3]) is 65.1%; in experiment [1] (setting [4]) it was greater than 5%; in experiment [2] (maximum activity), 39.3%.

Regarding `C[C@]12Cc3cnn(-c4ccc(F)cc4)c3C=C1CC[C@@H]2CN(CC1CC1)S(=O)(=O)c1ccccc1C(F)(F)F` [Example 4, N-(cyclopropylmethyl)-N-{[(4αR,5S)-1-(4-fluorophenyl)-4α-methyl-1,4,4α,5,6,7-hexahydrocyclopenta[f]indazol-5-yl]methyl}-2-(trifluoromethyl)benzenesulfonamide], the “GITAR > GRAMM % SEP” value in experiment [1] is reported as 36.2%. Further, the pEC50 in experiment [1] (U937 cells) is 6.59; in experiment [2] (A549 cells) it was 6.53. Also, the results for the Emax in experiment [1] (setting [3]), in experiment [1] (setting [4]) and in experiment [2] (maximum activity) were 53.1%, greater than 5% and 16.9%, respectively.

`C[C@]12Cc3cnn(-c4ccc(F)cc4)c3C=C1CC[C@@H]2CN(CCO)S(=O)(=O)Cc1cccc(C(F)(F)F)c1` [Example 63, N-{[(4αR,5S)-1-(4-fluorophenyl)-4α-methyl-1,4,4α,5,6,7-hexahydrocyclopenta[f]indazol-5-yl]methyl}-N-(2-hydroxyethyl)-1-[3-(trifluoromethyl)phenyl]methanesulfonamide]: the “GITAR > GRAMM % SEP” value in experiment [1] stood at 9.9%. Also, the pEC50 in experiment [1] (U937 cells) was 6.39; in experiment [2] (A549 cells) it was 5.85. The Emax in experiment [1] (setting [3]) was 12%; in experiment [1] (setting [4]), greater than 5%; in experiment [2] (maximum activity), 2.1%.

`Cc1ccc(S(=O)(=O)N(CCO)C[C@H]2CCC3=Cc4c(cnn4-c4ccc(F)cc4)C[C@@]32C)s1` [Example 64, N-{[(4αR,5S)-1-(4-fluorophenyl)-4α-methyl-1,4,4α,5,6,7-hexahydrocyclopenta[f]indazol-5-yl]methyl}-N-(2-hydroxyethyl)-5-methylthiophene-2-sulfonamide]: the “GITAR > GRAMM % SEP” value in experiment [1] is 21.1%. For the same molecule, the pEC50 in experiment [1] (U937 cells) was 6.14; in experiment [2] (A549 cells) it was 6.21. In addition, the Emax in experiment [1] (setting [3]) was 29%; in experiment [1] (setting [4]), greater than 5%; in experiment [2] (maximum activity) it was 7.9%.

For `Cn1cc(S(=O)(=O)N(CCO)C[C@H]2CCC3=Cc4c(cnn4-c4ccc(F)cc4)C[C@@]32C)c(C(F)(F)F)n1` [Example 65, N-{[(4αR,5S)-1-(4-fluorophenyl)-4α-methyl-1,4,4α,5,6,7-hexahydrocyclopenta[f]indazol-5-yl]methyl}-N-(2-hydroxyethyl)-1-methyl-3-(trifluoromethyl)-1H-pyrazole-4-sulfonamide], the “GITAR > GRAMM % SEP” value in experiment [1] was 41.3%. In addition, the pEC50 in experiment [1] (U937 cells) was 6.05; in experiment [2] (A549 cells), 5.96. Further, the Emax in experiment [1] (setting [3]) is 61%; in experiment [1] (setting [4]), greater than 5%; in experiment [2] (maximum activity) it was 19.6%.

Take `Cc1cc(S(=O)(=O)N(CCO)C[C@H]2CCC3=Cc4c(cnn4-c4ccc(F)cc4)C[C@@]32C)c(C)o1` [Example 66, N-{[(4αR,5S)-1-(4-fluorophenyl)-4α-methyl-1,4,4α,5,6,7-hexahydrocyclopenta[f]indazol-5-yl]methyl}-N-(2-hydroxyethyl)-2,5-dimethylfuran-3-sulfonamide]: the “GITAR > GRAMM % SEP” value in experiment [1] turned out to be 19.2%. Also, the pEC50 in experiment [1] (U937 cells) was 6.03; in experiment [2] (A549 cells) it was 5.93. Also, the results for the Emax in experiment [1] (setting [3]), in experiment [1] (setting [4]) and in experiment [2] (maximum activity) were 24.5%, greater than 5% and 5.3%, respectively.

On to `Cn1nc(C(F)(F)F)cc1-c1ccc(S(=O)(=O)N(CCO)C[C@H]2CCC3=Cc4c(cnn4-c4ccc(F)cc4)C[C@@]32C)s1` [Example 67, N-{[(4αR,5S)-1-(4-fluorophenyl)-4α-methyl-1,4,4α,5,6,7-hexahydrocyclopenta[f]indazol-5-yl]methyl}-N-(2-hydroxyethyl)-5-[1-methyl-3-(trifluoromethyl)-1H-pyrazole-5-yl]thiophene-2-sulfonamide], for which the “GITAR > GRAMM % SEP” value in experiment [1] is given as 22.8%. In addition, the pEC50 in experiment [1] (U937 cells) was 5.69; in experiment [2] (A549 cells), 6.35. For the same molecule, the Emax in experiment [1] (setting [3]) is 29.3%; in experiment [1] (setting [4]) it was greater than 5%; in experiment [2] (maximum activity) it was 6.5%.

For `C[C@]12Cc3cnn(-c4ccc(F)cc4)c3C=C1CC[C@@H]2CN(CCO)S(=O)(=O)c1cccc(C#N)c1` [Example 68, 3-cyano-N-{[(4αR,5S)-1-(4-fluorophenyl)-4α-methyl-1,4,4α,5,6,7-hexahydrocyclopenta[f]indazol-5-yl]methyl}-N-(2-hydroxyethyl)benezenesulfonamide], in experiment [1], the “GITAR > GRAMM % SEP” value is on record as 22.9%. In addition, the pEC50 in experiment [1] (U937 cells) was 6.12; in experiment [2] (A549 cells), 6.02. The Emax in experiment [1] (setting [3]) was 32.9%; in experiment [1] (setting [4]) it was greater than 5%; in experiment [2] (maximum activity) it was 10%.

With `C[C@]12Cc3cnn(-c4ccc(F)cc4)c3C=C1CC[C@@H]2CN(CCO)S(=O)(=O)c1ccc(Oc2cccc(Cl)c2C#N)cc1` [Example 69, 4-(3-chloro-2-cyanophenoxy)-N-{[(4αR,5S)-1-(4-fluorophenyl)-4α-methyl-1,4,4α,5,6,7-hexahydrocyclopenta[f]indazol-5-yl]methyl}-N-(2-hydroxyethyl)benzenesulfonamide], the “GITAR > GRAMM % SEP” value in experiment [1] stood at 22.2%. The pEC50 in experiment [1] (U937 cells) was 5.60; in experiment [2] (A549 cells), 6.07. For the same molecule, the Emax in experiment [1] (setting [3]) is 34.8%; in experiment [1] (setting [4]) it was greater than 5%; in experiment [2] (maximum activity), 12.6%.

As for `C[C@]12Cc3cnn(-c4ccc(F)cc4)c3C=C1CC[C@@H]2CN(CCO)S(=O)(=O)c1ccccc1C(F)(F)F` [Example 70, N-{[(4αR,5S)-1-(4-fluorophenyl)-4α-methyl-1,4,4α,5,6,7-hexahydrocyclopenta[f]indazol-5-yl]methyl}-N-(2-hydroxyethyl)-2-(trifluoromethyl)benzenesulfonamide], in experiment [1], the “GITAR > GRAMM % SEP” value is 15.1%. Further, the pEC50 in experiment [1] (U937 cells) was 6.00; in experiment [2] (A549 cells), 6.25. Besides, the Emax is 40.8% in experiment [1] (setting [3]), greater than 5% in experiment [1] (setting [4]) and 25.8% in experiment [2] (maximum activity).
